Measurements published in patent EP2881391A1, “Spiroindoline carbocycle derivatives and pharmaceutical compositions thereof” (Bayer Pharma Aktiengesellschaft, priority 2013, dated 2015).

The compounds below were run against T1, human GnRH receptor (Homo sapiens, UniProt P30968) (assay: IP-One HTRF assay (inhibition of GnRH-R activation by buserelin)). Settings: IP-One HTRF assay with buserelin (at EC80) stimulation; CHO cells stably expressing human GnRH receptor; tested 20 µM to 1 nM; read-out: Potency IC50.
T1 construct: line established by Prof; Thomas Gudermann; host or cells: CHO cells
T1 sequence (P30968 1-328): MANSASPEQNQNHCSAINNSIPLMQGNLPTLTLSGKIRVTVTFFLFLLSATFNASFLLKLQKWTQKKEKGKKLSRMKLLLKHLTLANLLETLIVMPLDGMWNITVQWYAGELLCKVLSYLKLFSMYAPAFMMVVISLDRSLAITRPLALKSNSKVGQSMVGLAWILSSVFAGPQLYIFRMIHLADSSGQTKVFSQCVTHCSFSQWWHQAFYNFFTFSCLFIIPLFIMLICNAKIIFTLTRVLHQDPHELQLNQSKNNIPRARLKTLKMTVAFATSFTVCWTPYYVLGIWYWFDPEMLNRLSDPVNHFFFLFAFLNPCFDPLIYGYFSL
Assay type: cell-based
From the text: By using homogenous time-resolved fluorescence resonance energy transfer (HTRF), the generation of one component of the GnRH-R signalling cascade can be measured. After stimulation of CHO cells stably expressing human GnRH receptor (established by Prof. Thomas Gudermann, currently University of Marburg, Germany; supplied as frozen cell aliquots by Cell Culture Services, Hamburg, Germany) with the EC80 of the GnRH agonist buserelin, Gq protein-coupled receptor signalling cascade is activated resulting in PLC-dependent cleavage of PIP2 to Inositol-1,4,5-triphosphate (IP3) and Diacylglycerol. The second messenger IP3 is degraded intracellularly to myo-inositol. Inhibition of the final degradation step from Inositol-1-phosphate (IP1) to myo-inositol by addition of lithium chloride leads to accumulation of IP1 in the cells. In cell lysates, IP1 can be detected via an antibody-based HTRF detection technology, where IP1 can displace the FRET acceptor IP1-d2 from binding by Terbium-labelled anti-IP1 antibody as donor resulting in a signal decrease. Compounds were tested for their capability of inhibiting GnRH-R activation by buserelin. For all IP-One HTRF® assays reagents of Cisbio Bioassays (IP-One Tb Jumbo kit, #62IPAPEJ; Cisbio Bioassays, Bagnols sur Cèze Cedex, France) were used.
For the assay, frozen cell aliquots were thawed and a cell suspension (3.33x10^6 cells/ml) containing IP1-d2 (dilution 1:40) was prepared and incubated at 37°C. After 1 h 3 µl of the cell suspension were added to 50 nl of a 100-fold concentrated solution of the test compound in DMSO pre-dispensed in a well of a white low-volume 384-well microtiter plate (Greiner Bio-One, Frickenhausen, Germany). The mixture was incubated for 20 min at 22°C to allow for pre-binding of the test compound to the GnRH-R. The receptor signaling cascade was stimulated by addition of 2 µl buserelin or LHRH (at EC50 or EC80) in stimulation buffer (10 mM Hepes pH 7.4, 1 mM CaCl2, 0.5 mM MgCl2, 4.2 mM KCI, 146 mM NaCl, 5.5 mM α-D-Glucose, 0.05% BSA, 125 mM LiCl (final assay concentration 50 mM) in aqua dest.). Plates were incubated for 1 h at 37°C and 5% carbon dioxide before the cells were lysed by adding 3 µl Terbium-labelled anti-IP1 antibody (1:40) diluted in Conjugate & Lysis buffer as supplied with the kit. After an incubation for 1 h at 22°C to enable complete cell lysis and antibody binding to free IP1 or IP1-d2, plates were measured in an HTRF reader, e.g. a RUBYstar, PHERAstar (both BMG Labtechnologies, Offenburg, Germany) or a Viewlux (PerkinElmer LAS, Rodgau-Jügesheim, Germany). From the fluorescence emissions at 665 nm (FRET) and at 620 nm (background signal of Terbium-antibody), the ratio (emission at 665 nm divided by emission at 620 nm) was calculated and the data were normalized (reaction without test compound = 0% inhibition; all other assay components except agonist = 100% inhibition). On the same microtiter plate, compounds were tested at 10 different concentrations in the range of 20 µM to 1 nM (20 µM, 6.7 µM, 2.2 µM, 0.74 µM, 0.25 µM, 82 nM, 27 nM, 9.2 nM, 3.1 nM and 1 nM; dilution series prepared before the assay at the level of the 100-fold conc. stock solutions by serial 1:3 dilutions in 100% DMSO) in duplicate values for each concentration. By using an in-house software, the IC50 values were calculated by a 4 parameter fit. The data reveal that the compounds of the present invention have antagonist activities on the human GnRH receptor. Within the meaning of the present invention the antagonist activity is reflected by the ability of a compound of the invention to antagonize human GnRH receptor stimulation in IP-One HTRF® assay at least three times the standard deviation over the background level.

Compound	IC50
O=C1CCC2(CC1)c1cc(C(=O)NCc3ccccc3Cl)ccc1N(S(=O)(=O)c1ccc(F)cc1)C2C1CC1 (single isomer, unassigned) [Example 3-2]	1020 nM
COc1cccc(S(=O)(=O)N2c3ccc(C(=O)Nc4ncco4)cc3C3(CCC(O)(C(F)(F)F)CC3)C2C2CC2)c1 (stereo not drawn) [Example 41, 2'-cyclopropyl-4-hydroxy-1'-[(3-methoxyphenyl)su Ifonyl]-N-(1,3-oxazol-2-yl)-4-(trifluoromethyl)-1',2'-dihydrospiro[cyclohexane-1,3'-indole]-5'-carboxamide]	1490 nM
CC1(O)CCC2(CC1)c1cc(C(=O)NCc3ccccc3Cl)ccc1N(S(=O)(=O)c1ccc(F)cc1)C2C1CC1 (stereo not drawn) [Example 4, N-(2-chlorobenzyl)-2'-cyclopropyl-1'-[(4-fluorophenyl)sulfonyl]-4-hydroxy-4-methyl-1',2'-dihydrospiro[cyclohexane-1,3'-indole]-5'-carboxamide]	73.3 nM
COC(=O)c1cccc(NC(=O)c2ccc3c(c2)C2(CCC(O)(C(F)(F)F)CC2)C(CC=C(C)C)N3S(=O)(=O)c2ccc(F)cc2)c1 (stereo not drawn) [Example 32, methyl 3-[({1'-[(4-fluorophenyl)sulfonyl]-4-hydroxy-2'-(3-methylbut-2-en-1-yl)-4-(trifluoromethyl)-1',2'-dihydrospiro[cyclohexane-1,3'-indol]-5'-yl}carbonyl)amino] benzoate]	494 nM
CC(C)=CCC1N(S(=O)(=O)c2ccc(F)cc2)c2ccc(C(=O)NCc3ncccc3C(F)(F)F)cc2C12CCC(O)(C(F)(F)F)CC2 (stereo not drawn) [Example 23, 1'-[(4-fluorophenyl)sulfonyl]-4-hydroxy-2'-(3-methylbut-2-en-1-yl)-4-(trifluoromethyl)-N-{[3-(trifluoromethyl)pyridin-2-yl]methyl}-1',2'-dihydrospiro[cyclohexane-1,3'-indole]-5'-carboxamide]	713 nM
O=C(NCc1ncccc1Cl)c1ccc2c(c1)C1(CCC(O)(C(F)(F)F)CC1)C(C1CC1)N2S(=O)(=O)c1ccc(F)cc1 (single isomer, unassigned) [Example 1-2]	135 nM
O=C(NC1CCc2ccccc21)c1ccc2c(c1)C1(CCC(O)(C(F)(F)F)CC1)C(C1CC1)N2S(=O)(=O)c1ccc(F)cc1 (stereo not drawn) [Example 53, 2'-cyclopropyl-N-(2,3-dihydro-1H-inden-1-yl)-1'-[(4-fluorophenyl)sulfonyl]-4-hydroxy-4-(trifluoromethyl)-1',2'-dihydrospiro[cyclohexane-1,3'-indole]-5'-carboxamide]	611 nM
COc1cccc(S(=O)(=O)N2c3ccc(C(=O)Nc4cncc(C)c4)cc3C3(CCC(O)(C(F)(F)F)CC3)C2C2CC2)c1 (stereo not drawn) [Example 39, 2'-cyclopropyl-4-hydroxy-1'-[(3-methoxyphenyl)su Ifonyl]-N-(5-methylpyridin-3-yl)-4-(trifluoromethyl)-1',2'-dihydrospiro[cyclohexane-1,3'-indole]-5'-carboxamide]	1680 nM
COC(=O)c1cccc(S(=O)(=O)N2c3ccc(C(=O)NCc4ncccc4Cl)cc3C3(CCCCC3)C2C2CC2)c1 (stereo not drawn) [Example 11, methyl 3-{[5'-{[(3-chloropyridin-2-yl)methyl]carbamoyl}-2'-cyclopropylspiro[cyclohexane-1,3'-indol]-1'(2'H)-yl]sulfonyl}benzoate]	1220 nM
O=C(NCc1ccccc1Cl)c1ccc2c(c1)C1(CCC(O)(C(F)(F)F)CC1)C(C1CC1)N2S(=O)(=O)c1ccc(F)cc1 (single isomer, unassigned) [Example 62-2]	3280 nM
COc1cccc(S(=O)(=O)N2c3ccc(C(=O)NCc4ccccc4Cl)cc3C3(CCC(O)(C(F)(F)F)CC3)C2C2CC2)c1 (stereo not drawn) [Example 43, N-(2-chlorobenzyl)-2'-cyclopropyl-4-hydroxy-1'-[(3-methoxyphenyl)su Ifonyl]-4-(trifluoromethyl)-1',2'-dihydrospiro[cyclohexane-1,3'-indole]-5'-carboxamide]	621 nM
COc1cccc(S(=O)(=O)N2c3ccc(C(=O)Nc4cccc(C)c4)cc3C3(CCC(O)(C(F)(F)F)CC3)C2C2CC2)c1 (stereo not drawn) [Example 34, 2'-cyclopropyl-4-hydroxy-1'-[(3-methoxyphenyl)su Ifonyl]-N-(3-methylphenyl)-4-(trifluoromethyl)-1',2'-dihydrospiro[cyclohexane-1,3'-indole]-5'-carboxamide]	3410 nM
O=C(NCc1ccccc1Cl)c1ccc2c(c1)C1(CCC(O)CC1)C(C1CC1)N2S(=O)(=O)c1ccc(F)cc1 (stereo not drawn) [Example 2, N-(2-chlorobenzyl)-2'-cyclopropyl-1'-[(4-fluorophenyl)sulfonyl]-4-hydroxy-1',2'-dihydrospiro[cyclohexane-1,3'-indole]-5'-carboxamide]	60.7 nM
CC(C)=CCC1N(S(=O)(=O)c2ccc(F)cc2)c2ccc(C(=O)Nc3ncco3)cc2C12CCC(O)(C(F)(F)F)CC2 (stereo not drawn) [Example 20, 1'-[(4-fluorophenyl)sulfonyl]-4-hydroxy-2'-(3-methylbut-2-en-1-yl)-N-(1,3-oxazol-2-yl)-4-(trifluoromethyl)-1',2'-dihydrospiro[cyclohexane-1,3'-indole]-5'-carboxamide]	655 nM
O=C(O)c1cccc(S(=O)(=O)N2c3ccc(C(=O)NCc4ccccc4Cl)cc3C3(CCCCC3)C2C2CC2)c1 (stereo not drawn) [Example 10, 3-({5'-[(2-chlorobenzyl)carbamoyl]-2'-cyclopropylspiro[cyclohexane-1,3'-indol]-1'(2'H)-yl}sulfonyl)benzoic acid]	805 nM
O=C(NC1(c2ccc(Cl)cc2)CC1)c1ccc2c(c1)C1(CCC(O)(C(F)(F)F)CC1)C(C1CC1)N2S(=O)(=O)c1ccc(F)cc1 (stereo not drawn) [Example 51, N-[1-(4-chlorophenyl)cyclopropyl]-2'-cyclopropyl-1'-[(4-fluorophenyl)sulfonyl]-4-hydroxy-4-(trifluoromethyl)-1',2'-dihydrospiro[cyclohexane-1,3'-indole]-5'-carboxamide]	551 nM
COc1cccc(S(=O)(=O)N2c3ccc(C(=O)NCc4ncccc4Cl)cc3C3(CCC(O)(C(F)(F)F)CC3)C2C2CC2)c1 (stereo not drawn) [Example 45, N-[(3-chloropyridin-2-yl)methyl]-2'-cyclopropyl-4-hydroxy-1'-[(3-methoxyphenyl)su Ifonyl]-4-(trifluoromethyl)-1',2'-dihydrospiro[cyclohexane-1,3'-indole]-5'-carboxamide]	756 nM
CC(C)=CCC1N(S(=O)(=O)c2ccc(F)cc2)c2ccc(C(=O)NCC3CCCCC3)cc2C12CCC(O)(C(F)(F)F)CC2 (stereo not drawn) [Example 21, N-(cyclohexylmethyl) -1'-[(4-fluorophenyl)sulfonyl]-4-hydroxy-2'-(3-methylbut-2-en-1-yl)-4-(trifluoromethyl)-(trifluoromethyl)-1',2'-dihydrospiro[cyclohexane-1,3'-indole]-5'-carboxamide]	13200 nM
